Source: patent US5981574A, “Phenanthrofuran derivatives” (Phytera, Inc., priority 1998, dated 1999)

Test system: Human umbilical-vein endothelial cells (HUVEC)
Assay: Anti-angiogenic activity in Tube Formation Assay (collagen tube, 1st Assay and 2nd Assay)
Assay type: cell-based
Details: for inhibition at 10 µg/mL / inhibition at 30 µg/mL / inhibition at 1 µg/mL / inhibition at 1 µM / inhibition at 10 µM: Homo sapiens, HUVEC; for inhibition at 10 µg/mL: 10 μg/ml; for inhibition at 30 µg/mL: 30 μg/ml; for inhibition at 1 µM / inhibition at 10 µM: positive control
Experimental: Anti-angiogenic activity: collagen tube
Human umbilical-vein endothelial cells (HUVEC; Kurabo Industries, Ltd., Osaka, Japan) were cultured with M-199 medium (Gibco, Gaithersburg, Md.) with […], bFGF (15 ng/mL; PeproTech EC, Ltd., Princeton, N.J.) and epidermal growth factor (EGF) (15 ng/mL; Upstate Biotechnology Inc., Lake Placid, N.Y.) until they become confluent. All experiments were performed using cells that were passaged at least five times. Eight volumes of type-I collagen solution (Nitta Gelatin Inc., Osaka, Japan)were mixed with one volume of 10X M-199 medium and one volume of reconstruction buffer (0.5 N NaOH, 200 mM HEPES and 260 mM NaHCO3).
Collagen gel (300 μL/well) was placed in 24-well culture plates (NUNC) and incubated for 1.5 hours. HUVEC (1.4×10^5 /0.5 mL) were seeded in the collagen-coated plates and cultured for 2 hours at 37° C. Fifty microliters of sample were added. The collagen gel was replaced (300 μL/well), and the mixture was cultured for 1.5 hours. Three hundred fifty microliters of M-199 medium with […], 30 ng/mL basic fibroblast growth factor (bFGF) were added, and the mixture was cultured for 20 hours. One field per well was photographed with a phase-contrast microscope, and the length of the tube structures were measured on a Macintosh computer using the public domain NIH Image program (see Table 1 for results). Erbstatin was used as a positive control for inhibition of angiogenesis.

[1] = 1st Assay, 1 μg/ml, n.e.: no effect, over 100% = more inhibition than in control cultures without bFGF
[2] = 1st Assay, over 100% = more inhibition than in control cultures without bFGF
[3] = 2nd Assay, over 100% = more inhibition than in control cultures without bFGF

For `CC1=C(C)C2=CC(=O)c3c(c(O)c4occ(C)c4c3O)C2(C)CC1` (stereo not drawn) [Ajuforrestine A fraction, 1,11b-dihydro-7,11-dihydroxy-3,4,8,11b-tetramethyl-phenanthro[3,2-b]furan-6(2H)-one], the “% of inhibition (tube formation)” value [1] was “n.e”, the inhibition at 10 µg/mL [2] was 99.6% and the inhibition at 30 µg/mL [2] was 102%. The inhibition at 10 µg/mL [3] was 98% and the inhibition at 30 µg/mL [3] was 109%.
`CC1=C(C)C2=CC(=O)c3c(c(O)c4oc(C)cc4c3O)C2(C)CC1` (stereo not drawn) [Formula I-A fraction] showed an inhibition at 1 µg/mL [1] of 115%, an inhibition at 10 µg/mL [2] of 119% and an inhibition at 30 µg/mL [2] of 119%. The inhibition at 1 µg/mL (2nd Assay, 1 μg/ml, over 100% = more inhibition than in control cultures without bFGF) was 108%, the inhibition at 10 µg/mL [3] was 108% and the inhibition at 30 µg/mL [3] was 107%.
For `O=CN/C=C/c1cc(O)ccc1O` [Erbstatin, reference compound], the inhibition at 1 µM (1st Assay) was 7.6%, the inhibition at 10 µM (1st Assay) was 118% and the inhibition at 1 µM (2nd Assay) was 6.7%. For the same compound, the inhibition at 10 µM (2nd Assay) was 108%.
